Test results reported in patent publication US20220031680A1, “Donecopride As Neuroprotective Agent In the Treatment of Neurodegenerative Diseases” (priority 2018, published 2022).

System: 5×FAD mice
Test: Novel object recognition test in 5×FAD mice
Type: in vivo, mouse
Settings: 1 mg/kg twice a week for 3 months; 24 h inter-session interval
Description: Animal experiments were carried out in accordance with the Directive by the Council of the European Communities of Nov. 24, 1986 (86/609/EEC). All efforts were made to minimize animal suffering and to reduce the number of mice used. The generation of 5×FAD mice was described in Oakley et al. (2006) J. Neurosci. 26:10129-10140. These transgenic mice overexpress both human APP (695) harboring the Swedish (K670N, M671L), Florida (1716V) and London (V7171) familial AD (FAD) mutations and human Presenilin 1 (PS1) harboring the two FAD mutations M146L and L286V. Expression of both transgenes is regulated by neuronal-specific elements of the mouse Thy1 promoter. The 5×FAD strain (B6/SJL genetic background) was maintained by crossing hemizygous transgenic mice with B6/SJL F1 breeders. The 5×FAD strain (C57BL/6J genetic background) was maintained by crossing hemizygous transgenic mice with C57BL/6J F1 breeders. All animals were genotyped by PCR using tail genomic DNA. Transgenic and WT mice were bred in our animal facility, had access to food and water ad libitum and were housed under a 12 h light-dark cycle at 22-24° C. Female 5×FAD mice were used in this study. For each experiment, the age of mice is indicated in months (with a two-week range).
Compounds were resuspended in DMSO (37.5 μg/μl, stored at −20° C.) and freshly diluted 1:250 in 0.9% NaCl prior administration. Vehicle solution (0.9% NaCl, 0.4% DMSO) was used as control.
5×FAD mice received chronic treatments with drugs or vehicle according to 2 different protocols. In each experiment, drugs or vehicle solution were administered i.p. twice a week (1 mg/kg). […]
The cognitive performance of mice was tested using the novel object recognition (NOR) test (Bevins and Besheer (2006) Nat. Protoc. 1:1306-1311). […] The whole experiment was video-recorded and object exploration [time spent by the mouse nose in contact with the object or by sniffing it at a distance s 1 cm] was blindly measured. […] A discrimination index was also calculated ([novel−familiar]/[familiar+novel]). […]

Row | Compound | recognition memory, exploration of novel vs familiar object (NOR)
1 | COc1cc(N)c(Cl)cc1C(=O)CCC1CCN(CC2CCCCC2)CC1 [Donecopride] | prevent memory alteration
2 | COc1cc(N)c(F)cc1C(=O)CCC1CCN(CC2CCCCC2)CC1 [Flucopride] | prevent memory alteration
